Test results from the supplement of paper PMC4862054.

How the values were obtained:
Details in all cases: 72 h
CAL-51 = test system: CAL-51
Outline: (§1)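 Two sequential readouts followed a 72 h incubation of breast cancer cell lines with compound at 5 concentrations in 10-fold steps over a compound-specific 10,000-fold range: CellTox Green fluorescence (485/520 nm) for cell death, then CellTiter-Glo luminescence, after 10 min at room temperature, for viability. Each plate was normalised to 0.1 % DMSO and a positive kill control. Dose-response curves were fitted for EC50, censored at the top concentration.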

BT-549 = test system: BT-549
Outline: as §1

MDA-MB-468 = test system: MDA-MB-468
Outline: as §1

MDA-MB-436 [1] = test system: MDA-MB-436
Method: (§2)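 Drug sensitivity and resistance testing (DSRT) of breast cancer cell lines in 384-well plates, 5 concentrations in 10-fold dilutions over a compound-specific 10,000-fold range. After 72 h, cytotoxicity was read by CellTox Green fluorescence and viability by CellTiter-Glo luminescence (multiplexed), normalised to DMSO and benzethonium chloride controls. EC50 is the inflection point of the fitted dose-response curve (bottom asymptote free, so it can be relative for partial curves) and is censored at the highest tested concentration. Rows with DSS 0 (no meaningful response) were excluded.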

DU-4475 [2] = test system: DU-4475
Method: as §2

CAL-148 [3] = test system: CAL-148
Method: as §2

HDQ-P1 [4] = test system: HDQ-P1
Method: as §2

MDA-MB-231 [5] = test system: MDA-MB-231
Method: as §2

MCF-10A [6] = test system: MCF-10A
Method: as §2

MDA-MB-436 [7] = test system: MDA-MB-436; remark: listed apart in the source
Outline: as §1

BT-474 [8] = test system: BT-474
Outline: as §1

HCC1937 = test system: HCC1937
Outline: as §1

DU-4475 [9] = test system: DU-4475; remark: listed apart in the source
Outline: as §1

SK-BR-3 = test system: SK-BR-3
Outline: as §1

CAL-148 [10] = test system: CAL-148; remark: listed apart in the source
Outline: as §1

HDQ-P1 [11] = test system: HDQ-P1; remark: listed apart in the source
Outline: as §1

MDA-MB-231 [12] = test system: MDA-MB-231; remark: listed apart in the source
Outline: as §1

HCC1599 = test system: HCC1599
Outline: as §1

MDA-MB-453 [13] = test system: MDA-MB-453
Outline: as §1

CAL-85-1 = test system: CAL-85-1
Outline: as §1

MCF-10A [14] = test system: MCF-10A; remark: listed apart in the source
Outline: as §1

Hs578T = test system: Hs578T
Outline: as §1

MFM-223 [15] = test system: MFM-223
Method: as §2

MFM-223 [16] = test system: MFM-223; remark: listed apart in the source
Outline: as §1

HDQ-P1 [17] = test system: HDQ-P1; remark: listed apart in the source
Outline: (§3)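 The reported EC50 was fitted from percent-inhibition dose-response curves and censored at the highest concentration. Breast cancer cell lines (20 µl suspension) were added to 384-well plates containing compound in 5 µl medium and incubated 72 h, and viability was read with 2.5 µl CellTiter-Blue over 2 h at 37 °C at 560/590 nm. Each plate was normalised to vehicle and a positive kill control and checked by Z'-factor, and rows with zero drug sensitivity score were dropped.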

CAL-120 [18] = test system: CAL-120
Method: as §2

CAL-120 [19] = test system: CAL-120; remark: listed apart in the source
Outline: as §1

HCC1143 = test system: HCC1143
Outline: as §1

BT-474 [20] = test system: BT-474; remark: listed apart in the source
Outline: as §3

MDA-MB-453 [21] = test system: MDA-MB-453; remark: listed apart in the source
Method: as §2

Compound | EC50, CellTiter-Glo (CAL-51) | EC50, CellTiter-Glo (BT-549) | EC50, CellTiter-Glo (MDA-MB-468) | EC50, CellTox Green (MDA-MB-436 [1]) | EC50, CellTox Green (DU-4475 [2]) | EC50, CellTox Green (CAL-148 [3]) | EC50, CellTox Green (HDQ-P1 [4]) | EC50, CellTox Green (MDA-MB-231 [5]) | EC50, CellTox Green (MCF-10A [6]) | EC50, CellTiter-Glo (MDA-MB-436 [7]) | EC50, CellTiter-Glo (BT-474 [8]) | EC50, CellTiter-Glo (HCC1937) | EC50, CellTiter-Glo (DU-4475 [9]) | EC50, CellTiter-Glo (SK-BR-3) | EC50, CellTiter-Glo (CAL-148 [10]) | EC50, CellTiter-Glo (HDQ-P1 [11]) | EC50, CellTiter-Glo (MDA-MB-231 [12]) | EC50, CellTiter-Glo (HCC1599) | EC50, CellTiter-Glo (MDA-MB-453 [13]) | EC50, CellTiter-Glo (CAL-85-1) | EC50, CellTiter-Glo (MCF-10A [14]) | EC50, CellTiter-Glo (Hs578T) | EC50, CellTox Green (MFM-223 [15]) | EC50, CellTiter-Glo (MFM-223 [16]) | EC50, CellTiter-Blue viability (HDQ-P1 [17]) | EC50, CellTox Green (CAL-120 [18]) | EC50, CellTiter-Glo (CAL-120 [19]) | EC50, CellTiter-Glo (HCC1143) | EC50, CellTiter-Blue viability (BT-474 [20]) | EC50, CellTox Green (MDA-MB-453 [21])
O=C(O)CNC(=O)c1c(O)c2ccccc2n(Cc2ccccc2)c1=O [IOX-2] | 1020 nM | > 50000 nM |  |  |  |  |  |  |  |  |  |  |  |  |  |  |  |  |  |  |  |  |  |  |  |  |  |  |  | 
CCn1c(C(=O)N(C2CC2)C2CC2)cc2c3c(ncn3C)c(Nc3cc(C)n(C)n3)nc21 |  |  | > 10000 nM |  |  |  |  |  |  |  |  |  |  |  |  |  |  |  |  |  |  |  |  |  |  |  |  |  |  | 
CC1(COc2ccc3c(c2)ncn3-c2ccc3cccc(N4CCC(N)CC4)c3n2)COC1 [Crenolanib] | 2630 nM | 1670 nM | 4750 nM | 29.3 nM | > 10000 nM | 2530 nM | 1040 nM | 2710 nM | 3370 nM | 4110 nM | 3980 nM | > 10000 nM | 3330 nM | 4180 nM | 4350 nM | 5070 nM | 4020 nM | > 10000 nM | 5370 nM | 3970 nM | 4780 nM | 3340 nM |  |  |  |  |  |  |  | 
CC(C)n1cnc2c(NCCc3ccc(O)cc3)nc(-c3csc4ccccc34)nc21 [StemRegenin 1] |  | 565 nM | 9610 nM |  |  |  |  |  |  | 7630 nM |  | > 10000 nM |  |  |  | 4790 nM |  |  | > 10000 nM |  |  |  | 2810 nM | 2020 nM |  |  |  |  |  | 
CN[C@@H](C)C(=O)N[C@H]1CN(C(=O)CC(C)C)CC[C@H]2CC[C@@H](C(=O)NC(c3ccccc3)c3ccccc3)N2C1=O [AT-406] |  | 5.97 nM | 563 nM |  |  |  | 5140 nM | 81.2 nM |  |  | 83.8 nM |  |  |  |  |  | 278 nM |  | 4490 nM | 826 nM |  |  |  |  |  |  |  |  |  | 
CO[C@@H]1[C@H](N(C)C(=O)c2ccccc2)C[C@H]2O[C@]1(C)n1c3ccccc3c3c4c(c5c6ccccc6n2c5c31)C(=O)NC4 [Midostaurin] | 308 nM | 585 nM | 229 nM |  |  |  | 1970 nM | 193 nM |  | 690 nM | 275 nM | 547 nM | 562 nM | 634 nM |  | 465 nM | 265 nM |  |  | 831 nM | 130 nM | 254 nM |  | 595 nM | 1130 nM | 510 nM | 275 nM | 414 nM |  | 
CC(C)(C)c1nc(-c2cccc(NS(=O)(=O)c3c(F)cccc3F)c2F)c(-c2ccnc(N)n2)s1 [Dabrafenib] |  |  |  |  | 224 nM |  |  |  |  |  |  |  | 60 nM |  |  |  |  |  |  |  |  | > 2500 nM |  |  |  |  | 56.3 nM |  |  | 
C/C(=C\c1csc(C)n1)[C@@H]1C[C@@H]2O[C@]2(C)CCC[C@H](C)[C@H](O)[C@@H](C)C(=O)C(C)(C)[C@@H](O)CC(=O)N1 [Ixabepilone] | 23 nM | 38.2 nM | 31.4 nM |  |  |  |  |  |  |  | 808 nM |  |  |  |  |  |  |  |  | 660 nM |  |  |  |  |  |  |  |  | 672 nM | 
COc1ccc(S(=O)(=O)Nc2cccnc2Nc2ccc(O)cc2)cc1 [ABT-751] | 6520 nM | 499 nM | 397 nM | 116 nM |  |  |  | 497 nM | 6830 nM | 507 nM | 575 nM | 350 nM | 1510 nM | 529 nM | 6970 nM | 231 nM | 740 nM | 752 nM | 149 nM | 264 nM | 5770 nM | 773 nM | 5430 nM | 1010 nM | 245 nM | > 10000 nM | 218 nM | 644 nM | 552 nM | 
CO[C@@]12[C@H](COC(N)=O)C3=C(C(=O)C(C)=C(N)C3=O)N1C[C@@H]1N[C@@H]12 [Mitomycin C] | 1140 nM | 1680 nM | 3860 nM |  |  |  | > 10000 nM |  |  | 7150 nM |  |  |  | > 10000 nM |  |  |  |  |  | 2420 nM |  |  |  |  | 8560 nM |  | > 10000 nM |  | 2500 nM | 
CC(O)(CS(=O)(=O)c1ccc(F)cc1)C(=O)Nc1ccc(C#N)c(C(F)(F)F)c1 (stereo unspecified) [Bicalutamide] |  |  |  |  |  |  |  |  |  |  |  |  |  |  |  |  |  |  | > 10000 nM |  |  |  |  |  |  |  |  |  |  | 
CCNC(=O)c1noc(-c2cc(C(C)C)c(O)cc2O)c1-c1ccc(CN2CCOCC2)cc1 [NVP-AUY922] | 34 nM | 11.7 nM | 4.55 nM |  | 25.2 nM | 29.5 nM | 33 nM | 9.41 nM | 7.61 nM | 5.43 nM | 42.4 nM | 28 nM | 33.1 nM | 7.09 nM | 41.4 nM | 14.1 nM | 40.4 nM | 37.1 nM | 42.6 nM | 38.8 nM | 27.6 nM | 41.8 nM |  | 10.2 nM | 9.72 nM | > 1000 nM | 37.2 nM | 38.7 nM | 23.4 nM | > 1000 nM
